Laboratory results from patent US8466202B2, “Anthracenedione compounds” (Sunten Phytotech Co., Ltd., priority 2006, dated 2013).
“And” between values parts separate entries of the source, which are not always exact repeats. Identical values can stand only once.

Tests used:
[1] = Body weight of rats over the 10-day period (Example 3); format: in vivo, rat; parameters: Body weight Difference: unit not given here; conditions: Group III, Physcion 4 mg/kg, CP 8 mg/kg
Procedure: The aforementioned STD05 and compounds were studied for the laxative activity. Healthy male S.D. rats (BioLASCO Taiwan Co. Ltd.) were divided into three groups (i.e., Groups 1-3) in this study. In Group I, 6 rats, as negative control, were given no treatment; 6 rats, as positive control, were given 3.35 mg/kg/day Sennosides (Through®, Chung Mei Pharmaceutical Co., Ltd; Active ingredient: Sennosides 20 mg, as sennoside A+B 12 mg, Lot. 012F 006); 6 rats were treated STD05 (8 mg/kg/day); 6 rats were treated with an extract fraction containing aloe-emodin, rhein, and emodin (“ARE”, 8 mg/kg/day); 6 rats were treated with Aloe-emodin (4 mg/kg/day); and 6 rats were treated with Rhein (4 mg/kg/day). In Group II, 6 rats, as negative control, were given no treatment; 6 rats, as positive control, were given 3.35 mg/kg/day Sennosides; 6 rats were treated STD05 (24 mg/kg/day); 6 rats were treated with an extract fraction containing ARE (24 mg/kg/day); 6 rats were treated with Chrysophanol (4 mg/kg/day); and 6 rats were treated with Emodin (4 mg/kg/day). In Group III, 6 rats, as negative control, were given no treatment; 6 rats were treated with Physcoin (4 mg/kg/day); and 6 rats were treated with a mixture of chrysophanol and physcion (8 mg/kg/day, “CP”). The experiments were carried out under controlled temperature, humidity, and lighting. Each rat was fed standard rat food and water ad libitum in housing that provided a 12-hour light/dark cycle. For statistical comparison, all of the rats were divided into six sets according to the body weights. The first part of the experiment studied the effect of the test substances on feces production. During the 10-day period, the body weights of the rats were weighed each day and recorded. The rat's feces was also studied three times in the manner described above during the 10-day period for any unusual observations. During the 10-day period, any rat that appeared dying was euthanized, dissected, and examined for any illness or injury. Any complications or illness were analyzed by H&E stains to determine the cause of death and to allow for dosage reconsiderations for future experiments. Summarized in Table 4 below are the effects of the compounds, mixtures, or extracts on the rat body weights.

healthy male S.D. rats = experiment: Feces production in rats over the 10-day period (Example 3); format: in vivo, rat; conditions: for increase of the feces amount (wet weight): vs control of the same group; for Pellet count / Water content / Wet Weight: Group III, Physcion 4 mg/kg, CP 8 mg/kg
Procedure: During this period, the body weights of the rats were weighed each day and recorded. Feces of each rat were studied three times during the period for any unusual observations. Specifically, the amounts of feces were weighed on Days 11, 15, 18, and 21. During observation, each rat was placed in a metabolic cage. Feces were collected every twenty-four hours. The number of collected feces pellets was counted, and the pellets' shapes and colors were evaluated. After weighing the moist feces, they were dried in an oven at 100° C. for twenty-four hours. The water content from the feces was calculated according to the following formula: Water content percentage=[(wet weight−dry weight)/wet weight]×100%. (I) The results are summarized in Table 2 below: The aforementioned STD05 and compounds were studied for the laxative activity. Healthy male S.D. rats (BioLASCO Taiwan Co. Ltd.) were divided into three groups (i.e., Groups 1-3) in this study. In Group I, 6 rats, as negative control, were given no treatment; 6 rats, as positive control, were given 3.35 mg/kg/day Sennosides (Through®, Chung Mei Pharmaceutical Co., Ltd; Active ingredient: Sennosides 20 mg, as sennoside A+B 12 mg, Lot. 012F 006); 6 rats were treated STD05 (8 mg/kg/day); 6 rats were treated with an extract fraction containing aloe-emodin, rhein, and emodin (“ARE”, 8 mg/kg/day); 6 rats were treated with Aloe-emodin (4 mg/kg/day); and 6 rats were treated with Rhein (4 mg/kg/day). In Group II, 6 rats, as negative control, were given no treatment; 6 rats, as positive control, were given 3.35 mg/kg/day Sennosides; 6 rats were treated STD05 (24 mg/kg/day); 6 rats were treated with an extract fraction containing ARE (24 mg/kg/day); 6 rats were treated with Chrysophanol (4 mg/kg/day); and 6 rats were treated with Emodin (4 mg/kg/day). In Group III, 6 rats, as negative control, were given no treatment; 6 rats were treated with Physcoin (4 mg/kg/day); and 6 rats were treated with a mixture of chrysophanol and physcion (8 mg/kg/day, “CP”). The experiments were carried out under controlled temperature, humidity, and lighting. Each rat was fed standard rat food and water ad libitum in housing that provided a 12-hour light/dark cycle. For statistical comparison, all of the rats were divided into six sets according to the body weights. The first part of the experiment studied the effect of the test substances on feces production. During the 10-day period, the body weights of the rats were weighed each day and recorded. The rat's feces was also studied three times in the manner described above during the 10-day period for any unusual observations. During the 10-day period, any rat that appeared dying was euthanized, dissected, and examined for any illness or injury. Any complications or illness were analyzed by H&E stains to determine the cause of death and to allow for dosage reconsiderations for future experiments. Summarized in Table 4 below are the effects of the compounds, mixtures, or extracts on the rat body weights. During the period, feces produced by the rats were studied days 1, 5, and 10 in the same manner described above. […] In the 10-day period, the rats administered with STD05 produced more feces (wet weight) that the rats in the control group by about 32%. In addition, the pellet counts for the rats administered with STD05 were greater than those for the control rats by about 20%. Furthermore, STD05 increased the water content in feces by about 18%. The same experiments were conducted on rats administered with physcion, aloe-emodin, chrysophanol, rhein, emodin, CP, and ARE.

[2] = Enteric absorption rate (statement, no method given); conditions: general statement
[3] = Side effects compared with Rheum palmatum Linne herb extracts (statement, no method given); conditions: general statement

COc1cc(O)c2c(c1)C(=O)c1cc(C)cc(O)c1C2=O [Physcion, physcion]
Body weight Difference, Mean ([1]; group mean, Day 10 minus Day 1): 30 g | Body weight End Day 10, Mean ([1]; group mean): 425 g | Body weight Difference ([1]; individual rats, Day 10 minus Day 1): 25 and 30 (3×) and 45 and 20 | Body weight End Day 10 ([1]; individual rats, in g (unit assumed)): 410 and 430 and 450 and 385 and 415 and 460 | increase of the feces amount (wet weight) (healthy male S.D. rats; Day 1): 93% | increase of the feces amount (wet weight) (healthy male S.D. rats; Day 5): 57% | increase of the feces amount (wet weight) (healthy male S.D. rats; Day 10): 32% | Pellet count (healthy male S.D. rats; Day 1): 134 | Water content (healthy male S.D. rats; Day 1): 55.73% | Wet Weight (healthy male S.D. rats; Day 1): 35.38 g | Pellet count (healthy male S.D. rats; Day 5): 128 | Water content (healthy male S.D. rats; Day 5): 53.80% | Wet Weight (healthy male S.D. rats; Day 5): 35.17 g | Pellet count (healthy male S.D. rats; Day 10): 121 | Water content (healthy male S.D. rats; Day 10): 47.66% | Wet Weight (healthy male S.D. rats; Day 10): 29.43 g | increase of the feces amount (wet weight), average (healthy male S.D. rats; average of Days 1, 5 and 10): 61% | enteric absorption rate [2]: very low | side effects often seen in herb extracts (cramping, bloating, gas, and diarrhea) [3]: do not have the side effects
